Experimental data from US20130190345A1, “MATRINIC ACID/MATRINE DERIVATIVES AND PREPARATION METHODS AND USES THEREOF” (priority 2010, published 2013).
Values after ≈ are worked out from the molar mass of the structure shown.

Tests used:
Assay type in all cases: cell-based
Hsc70 [1] = experiment: Detection of Hsc70 gene expression level upon action of compound on 2.2.15 cells (real-time fluorescent quantified PCR); settings: 2.2.15 cells; relative to OMT (= 1)
Description: 2.2.15 cells (purchased from Vertex Pharmaceutical Co., USA) in a number of 1×10^6 were inocubated to 6-well plate, cultured in a culture medium containing 10% fetal calf serum for 24 hr, the original culture medium was discarded, replaced with a culutre medium containing 400 μg/ml OMTR, which was used as control. Compounds were firstly dissolved in MEM to form 20 mg/ml mother liquid, which was diluted with culture medium when used and then applied to cells. The compounds of Examples 1-114 were separately used for treatment for 12, 24, 36 hr, then cells were harvested for extraction of RNA and DNA, then the changes of Hsc70 mRNA and HBV DNA were detected by real-time fluorescent quantified PCR.

Hsc70 [2] = experiment: Inhibition effects of compound on Hsc70 in Huh7.5 cultured cell (qRT-PCR, Western blotting); parameters: key to Hsc70 down-regulation rate (%): “—” represents no significant inhibition rate
Description: 2×10^5/ml Huh7.5 cells (purchased from Vertex Pharmaceutical Co., USA) were inoculated in an amount of 3 ml on 6-well culture plate, placed in an incubator with 37° C., 5% CO2 content, saturation humidity, and cultured for 24 h, added with different drug solutions (DM122) formulated with culture medium, and cell control was set. Cultivation was continuously performed in the incubator with 37° C., 5% CO2 content, saturation humidity for 24 h, a kit for RNA extraction was used to extract intracellular RNA from the cells, and one-step qRT-PCR was used to determine intracellular contents of Hsc70 and GAPDHRNA. After the cultivation of cells was performed for 48 h, the cells were digested and harvested, then the cells were split with CytoBuster™ Protein Extraction Buffer that contained many kinds of protease inhibitors, total intracellular proteins were extracted, and Western blotting was used to analyze the contents of Hsc70 and GAPDH proteins. In comparison with the cell control, the inhibition effects on Hsc70 upon action of different drugs were analyzed.

HCV = experiment: Inhibition effects of compounds on HCV in Huh7.5 cultured cell after HCV infection; settings: for EC50 (half effective concentration): virus not given, stands beside HCV inhibition rate
Description: 1×10^5/ml Huh7.5 cells (purchased from Vertex Pharmaceutical Co., USA) were inoculated in an amount of 0.1 ml on 96-well culture plate, placed in an incubator with 37° C., 5% CO2 content and saturation humidity, and cultured for 24 h, HCV virus in 45 IU/cell was used to infect Huh7.5, different drug solutions (DM122) formulated with culture medium were added, and cell control and HCV infection control were set. Cultivation was continuously performed in the incubator with 37° C., 5% CO2 content and saturation humidity for 72 h, kit for RNA extraction was used to extract intracellular RNA, one-step qRT-PCR was used to determine intracellular contents of HCV and GAPDH RNA, and the inhibition effects of drug on HCV infection was analyzed. […] In comparison with the virus control group, the inhibition effects on HCV infection upon action of different drugs were analyzed. […] This experiment was repeated for 3 times, * indicated […] in comparison with control, ** indicated p<0.01 in comparison with control.

2.2.15 cells = experiment: Drug TC50 by MTT detection; settings: Reed-Muench
Description: 2.2.15 cells (all cells were purchased from Vertex Pharmaceutical Co., USA) in exponential growth phase were inoculated on 96-well culture plate, 2×10^5 cells/well, added with culture media containing PFA diluted in different concentration rates, 3 wells for each diluted concentration, placed in 37° C. CO2—containing incubator and cultivated for 48 h; the supernatant was discarded, 100 μl of MTT (0.5 mg/ml) in culture medium was added, cultivation was continuously performed at 37° C. for 4 h; each well was added to 100 μl of 50% DMF-20% SDS destaining solution, stood at 37° C. overnight; ELISA was used to measure optical density at wavelength of 570 nm (0D570).
In each experiment, 3 cell control wells and 3 blank controls well were set, the results were used in formula, (cell control OD570-drug-medicated cell OD570)/cell control OD570, to calculate cell death rate (%), and Reed-Muench method was used to calculate half toxic concentration TC50.

| Compound | Hsc70 inhibition rate (down-regulation of Hsc70 expression activity, expressed in relative OMT ratio) (Hsc70 [1]) | Hsc70 down-regulation rate (%) (Hsc70 [2]; 200 ug/ml (upper data)) | Hsc70 down-regulation rate (%) (Hsc70 [2]; 400 ug/ml (lower data)) | HCV inhibition rate (%) (HCV; 400 ug/ml (lower data)) | EC50 (half effective concentration) (HCV) | CC50 (concentration to cause poisoning in half cells) (2.2.15 cells) | HCV inhibition rate (%) (HCV; 200 ug/ml (upper data)) |
| --- | --- | --- | --- | --- | --- | --- | --- |
| O=C(O)CCC[C@@H]1[C@H]2CCCN3CCC[C@@H](CN1C(=O)c1cccc([N+](=O)[O-])c1)[C@@H]23 [DM-121, N-(3-nitrobenzoyl) matrinic acid] | 0.23 | — | — | 14.9 ± 9.0% |  |  |  |
| O=C(O)CCC[C@@H]1[C@H]2CCCN3CCC[C@@H](CN1C(=O)c1ccc(C(F)(F)F)cc1)[C@@H]23 [DM-155, N-(4-trifluoromethylbenzoyl) matrinic acid] |  |  |  |  | >333.33 mg/L | >1000 mg/L |  |
| Cc1ccc(C(=O)N2C[C@@H]3CCCN4CCC[C@@H]([C@H]34)[C@H]2CCCC(=O)O)cc1 [DM-153, N-(4-methylbenzoyl) matrinic acid] |  | 38.6 ± 15.8% | 32.6 ± 14. % | 29.2 ± 29.5% |  |  | 47.8 ± 9.4% |
| O=C(O)C=CCC1C2CCCN3CCCC(CN1S(=O)(=O)c1ccc(C(F)(F)F)cc1)C23 (stereo not shown) [SC-84a, N-(p-trifluoromethylbenzene sulfonyl) sophocarpinic acid] |  |  |  |  | 7.54 mg/L (≈ 16 µM) | 530.07 mg/L (≈ 1120 µM) |  |
| O=C(O)CCCC1C2CCCN3CCCC(CN1C(=O)c1cccc([N+](=O)[O-])c1)C23 [Compound L9, (5R)—N-(3-nitrobenzoyl)matrinic acid] |  | 20.1 ± 11.1% | — | 68.9 ± 3.8% |  |  | 62.5 ± 0.3% |
| O=C(O)CCCC1C2CCCN3CCCC(CN1Cc1cccc4ccccc14)C23 (stereo not shown) [DM-148, N-(naphthyl-1-yl) methyl matrinic acid] |  |  |  |  | >333.3 mg/L | 529.86 mg/L (≈ 1300 µM) |  |
| N#Cc1cccc(S(=O)(=O)N2CC3CCCN4CCCC(C34)C2CC=CC(=O)O)c1 (stereo not shown) [SC-89b, N-(m-cyanobenzenesulfonyl) sophocarpinic acid] |  |  |  |  | 3.98 mg/L (≈ 9.27 µM) | 123.08 mg/L (≈ 287 µM) |  |
| COc1ccc(C(=O)N2CC3CCCN4CCCC(C34)C2CCCC(=O)O)cc1 (stereo not shown) [DM-151, N-(4-methoxybenzoyl) matrinic acid] |  | — | 11.5 ± 2.4% | 53.4 ± 5.6% |  |  | 20.5 ± 3.2% |
| O=C(O)CCCC1C2CCCN3CCCC(CN1Cc1ccncc1)C23 (stereo not shown) [DM-145, N-(pyridin-4-yl)methyl matrinic acid] |  |  |  |  | 117.2 mg/L (≈ 328 µM) | >1000 mg/L |  |
| Cc1ccc([N+](=O)[O-])cc1C(=O)N1C[C@H]2CCCN3CCC[C@@H]([C@H]23)[C@H]1CCCC(=O)O [Compound L2, (5R)—N-(2-methyl-5-nitrobenzoyl)matrinic acid] |  | 76.6 ± 2.5% | 32.7 ± 5.0% | 5.3 ± 5.1% |  |  | 27.9 ± 16.3% |
| O=C(O)CCCC1C2CCCN3CCCC(CN1Cc1cccnc1)C23 (stereo not shown) [DM-144, N-(pyridin-3-yl) methyl matrinic acid] |  |  |  |  | 31.8 mg/L (≈ 89 µM) | >1000 mg/L |  |
| N#Cc1ccc(C(=O)N2CC3CCCN4CCCC(C34)C2CCCC(=O)O)cc1 (stereo not shown) [DM-152, N-(4-cyanobenzoyl) matrinic acid] |  |  |  |  | 125.65 mg/L (≈ 318 µM) | >1000 mg/L |  |
| COc1ccc(C(=O)N2CC3CCCN4CCCC(C34)C2CCCC(=O)O)cc1 [Compound L11, (5R)—N-(p-methoxybenzoyl)matrinic acid] |  | 31.4 ± 12.2% | — | 61.6 ± 3.9% |  |  | 46.7 ± 12.7% |
| O=C(O)CCCC1C2CCCN3CCCC(CN1C(=O)c1ccc(F)cc1)C23 (stereo not shown) [DM-154, N-(4-fluorobenzoyl) matrinic acid] |  |  |  |  | >333.33 mg/L | >1000 mg/L |  |
